Data as given in the NIST ThermoML archive (doi:10.1021/je800888n).

Legend:
[1] = Liquid, Closed cell (Static) method
[2] = excess molar enthalpy (molar enthalpy of mixing); xn = mol fraction of the nth substance listed; conditions: 323.15 K, 101 kPa, Liquid, Flow calorimetry

CCCC(=O)O [butanoic acid]
[1]
Conditions | vapor or sublimation pressure [kPa]
273.15 K | 0.0137
283.15 K | 0.0324
293.15 K | 0.0725
293.29 K | 0.072
298.15 K | 0.1063
298.25 K | 0.1052
303.15 K | 0.1541
303.28 K | 0.1545
313.15 K | 0.3128
313.22 K | 0.3155
323.15 K | 0.6084
323.2 K | 0.6183
333.15 K | 1.138
333.18 K | 1.153
343.15 K | 2.055
343.18 K | 2.073
353.1 K | 3.582
353.15 K | 3.593
363.08 K | 5.973
363.15 K | 6.095

CCCC(=O)O [butanoic acid] + Cc1ccccc1
[2]
Conditions | excess molar enthalpy [kcal/mol]
x1 = 0.0289 | 0.00659
x1 = 0.0576 | 0.00663
x1 = 0.1144 | 0.00368
x1 = 0.1702 | -0.000361
x1 = 0.2251 | -0.00433
x1 = 0.2792 | -0.00731
x1 = 0.3325 | -0.0104
x1 = 0.3849 | -0.0129
x1 = 0.4366 | -0.0149
x1 = 0.4874 | -0.0163
x1 = 0.5375 | -0.0174
x1 = 0.5869 | -0.0176
x1 = 0.6355 | -0.0169
x1 = 0.6834 | -0.0161
x1 = 0.7306 | -0.0147
x1 = 0.7771 | -0.013
x1 = 0.823 | -0.0107
x1 = 0.8682 | -0.00798
x1 = 0.9127 | -0.00545
x1 = 0.9567 | -0.00251
x1 = 0.9784 | -0.00114

Cc1ccccc1 [toluene]
[1]
Conditions | vapor or sublimation pressure [kPa]
253.83 K | 0.2392
263.64 K | 0.4837
273.15 K | 0.9082
273.47 K | 0.9254
283.15 K | 1.666
283.32 K | 1.68
293.15 K | 2.911
293.24 K | 2.925
293.26 K | 2.925
298.15 K | 3.785
298.25 K | 3.803
303.15 K | 4.872
303.23 K | 4.894
313.15 K | 7.848
313.19 K | 7.872
313.22 K | 7.874
323.15 K | 12.22
323.22 K | 12.24
333.15 K | 18.45
333.2 K | 18.57
343.15 K | 27.1
343.16 K | 27.2
353.13 K | 38.84
353.15 K | 38.84
363.08 K | 54.13
363.15 K | 54.42
